pIC50: −log10 of the molar value. The source made the active and inactive calls. No cut-off for these calls is given here.
Tests used:
HeLa = assay: Cytotoxicity against human HeLa cells assessed as reduction in cell viability after 72 hrs by MTT assay; assay type: functional, cell-based
MCF7 [1] = assay: Cytotoxicity against human MCF7 cells assessed as combination index measured at ED50 at H2O2/pcm ratio of 2.5:1 in presence of H2O2 after 48 hrs by MTT assay; assay type: functional
[2] = Cytotoxicity against human NCI-H460/R cells transfected with MDR assessed as reduction in cell viability after 72 hrs by MTT assay; assay type: functional, cell-based; settings: NCI-H460, 72 h
MCF7 [3] = assay: Cytotoxicity against human MCF7 cells assessed as combination index measured at ED90 at H2O2/pcm ratio of 2.5:1 in presence of H2O2 after 48 hrs by MTT assay; assay type: functional
NCI-H460 = assay: Cytotoxicity against human NCI-H460 cells assessed as reduction in cell viability after 72 hrs by MTT assay; assay type: functional, cell-based; settings: NCI-H460, 72 h
SiHa = assay: Cytotoxicity against human SiHa cells assessed as reduction in cell viability after 72 hrs by MTT assay; assay type: functional, cell-based
[4] = Drug metabolism assessed as methyl 3-(1-hydroxy-4-oxocyclohexa-2,5-dienyl)acrylate formation by reverse phase-HPLC and HPLC-MS analysis based Fenton reaction assay
MCF7 [5] = assay: Cytotoxicity against human MCF7 cells assessed as reduction in cell viability after 72 hrs by MTT assay; assay type: functional, cell-based; settings: MCF7, 72 h
NCI-H661 = assay: Cytotoxicity against human NCI-H661 cells assessed as reduction in cell viability after 72 hrs by MTT assay; assay type: functional, cell-based; settings: NCI-H661, 72 h
[6] = Cytotoxicity against mouse L5178B1 cells transfected with pHa MDR1/A retrovirus assessed as reduction in cell viability after 72 hrs by MTT assay; assay type: functional, cell-based; settings: MDR1, 72 h
MCF7 [7] = assay: Cytotoxicity against human MCF7 cells assessed as combination index measured at ED75 at H2O2/pcm ratio of 2.5:1 in presence of H2O2 after 48 hrs by MTT assay; assay type: functional
[8] = target: T1, Serine/threonine-protein kinase Chk1 (Homo sapiens) (UniProt O14757); assay: Inhibition of CHK1 phosphorylation at S345 in human MCF7 cells at 10 uM pretreated for 30 mins followed by 10 J/m'2 irradiation and measured after 1 hr by Western blot analysis; assay type: cell-based
T1 sequence (whole entry): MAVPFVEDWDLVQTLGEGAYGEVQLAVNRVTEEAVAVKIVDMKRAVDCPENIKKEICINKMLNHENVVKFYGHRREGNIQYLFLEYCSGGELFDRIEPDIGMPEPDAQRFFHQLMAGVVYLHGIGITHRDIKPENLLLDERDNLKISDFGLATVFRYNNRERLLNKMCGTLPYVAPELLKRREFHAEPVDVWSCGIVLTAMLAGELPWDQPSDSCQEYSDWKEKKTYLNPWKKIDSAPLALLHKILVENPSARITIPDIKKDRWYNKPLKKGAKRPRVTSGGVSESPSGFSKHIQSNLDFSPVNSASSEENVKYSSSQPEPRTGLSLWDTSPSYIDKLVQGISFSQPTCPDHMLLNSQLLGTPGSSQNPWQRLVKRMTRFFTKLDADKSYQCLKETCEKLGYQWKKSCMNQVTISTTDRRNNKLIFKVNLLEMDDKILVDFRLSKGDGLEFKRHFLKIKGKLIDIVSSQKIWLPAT

MCF7 [9] = assay: Cytotoxicity against human MCF7 cells assessed as combination index measured at ED75 at H2O2/pcm ratio of 1.25:1 in presence of H2O2 after 48 hrs by MTT assay; assay type: functional
A549 = assay: Cytotoxicity against human A549 cells assessed as reduction in cell viability after 72 hrs by MTT assay; assay type: functional, cell-based; settings: A549, 72 h
[10] = Antioxidant activity assessed as hydroxyl radical scavenging activity by measuring inhibition of damage to 2-deoxy-D-ribose after 3 mins by TBA-based Fenton reaction assay; assay type: functional
[11] = Stability in MeOH and H2O2 by HPLC-PDA assay; assay type: physicochemical
[12] = target: Serine/threonine-protein kinase Chk2 (Homo sapiens) (UniProt O96017); assay: Inhibition of CHK2 phosphorylation at T68 in human MCF7 cells at 10 uM pretreated for 30 mins followed by 10 J/m'2 irradiation and measured after 1 hr by Western blot analysis; assay type: cell-based
Sequence of Serine/threonine-protein kinase Chk2 (Homo sapiens) (O96017 whole entry): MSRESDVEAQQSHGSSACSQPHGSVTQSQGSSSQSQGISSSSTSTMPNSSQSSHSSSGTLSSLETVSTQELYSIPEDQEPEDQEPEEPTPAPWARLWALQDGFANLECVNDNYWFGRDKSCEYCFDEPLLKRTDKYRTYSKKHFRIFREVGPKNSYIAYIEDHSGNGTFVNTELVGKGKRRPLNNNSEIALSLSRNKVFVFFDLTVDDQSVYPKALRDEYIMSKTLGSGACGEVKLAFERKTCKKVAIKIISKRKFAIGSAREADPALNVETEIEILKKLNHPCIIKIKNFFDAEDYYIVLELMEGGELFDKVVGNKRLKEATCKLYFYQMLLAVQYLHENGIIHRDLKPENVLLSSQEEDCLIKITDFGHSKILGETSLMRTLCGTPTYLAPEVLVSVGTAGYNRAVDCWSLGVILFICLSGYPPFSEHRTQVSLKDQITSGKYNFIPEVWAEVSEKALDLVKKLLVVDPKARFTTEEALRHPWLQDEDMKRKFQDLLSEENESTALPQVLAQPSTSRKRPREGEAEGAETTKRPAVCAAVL

MCF7 [13] = assay: Cytotoxicity against human MCF7 cells assessed as combination index measured at ED90 at H2O2/pcm ratio of 0.625:1 in presence of H2O2 after 48 hrs by MTT assay; assay type: functional
HaCaT = assay: Cytotoxicity against human HaCaT cells assessed as reduction in cell viability after 72 hrs by MTT assay; assay type: cell-based
[14] = Cytotoxicity against mouse L5178 cells assessed as reduction in cell viability after 72 hrs by MTT assay; assay type: functional, cell-based; settings: L5178, 72 h
Liver = assay: Antioxidant activity in rat liver microsomes assessed as reduction in lipid peroxidation; assay type: functional, Microsome
MCF7 [15] = assay: Cytotoxicity against human MCF7 cells assessed as combination index measured at ED75 at H2O2/pcm ratio of 0.625:1 in presence of H2O2 after 48 hrs by MTT assay; assay type: functional
MCF7 [16] = assay: Cytotoxicity against human MCF7 cells assessed as combination index measured at ED90 at H2O2/pcm ratio of 1.25:1 in presence of H2O2 after 48 hrs by MTT assay; assay type: functional
MCF7 [17] = assay: Cytotoxicity against human MCF7 cells assessed as combination index measured at ED50 at H2O2/pcm ratio of 1.25:1 in presence of H2O2 after 48 hrs by MTT assay; assay type: functional
MCF7 [18] = assay: Cytotoxicity against human MCF7 cells assessed as combination index measured at ED50 at H2O2/pcm ratio of 0.625:1 in presence of H2O2 after 48 hrs by MTT assay; assay type: functional

- inhibition [8]: inactive
- Stability [11]: <= 92 hr
- inhibition [12]: inactive
- pIC50 (Liver): 6.40
SMILES: COC(=O)/C=C/c1ccc(O)cc1 [METHYL P-HYDROXYCINNAMATE]
- pIC50 (HeLa): < 3.82
- CI (MCF7 [1]): 0.79
- pIC50 [2]: 2.98
- CI (MCF7 [3]): 0.45
- pIC50 (NCI-H460): 3.92
- pIC50 (SiHa): < 3.82
- Drug metabolism [4]: Metabolite detected
- pIC50 (MCF7 [5]): < 3.40
- pIC50 (NCI-H661): 3.54
- pIC50 [6]: < 3.82
- CI (MCF7 [7]): 0.6
- CI (MCF7 [9]): 0.6
- pIC50 (A549): 3.49
- pIC50 [10]: 3.46
- CI (MCF7 [13]): 0.44
- pIC50 (HaCaT): 3.51
- pIC50 [14]: 3.90
- CI (MCF7 [15]): 0.68
- CI (MCF7 [16]): 0.39
- CI (MCF7 [17]): 0.93
- CI (MCF7 [18]): 1.06
